pEC50, pKi: −log10 of the molar value.
Key:
[1] = Inhibition of Trypanosoma brucei rhodesain using Cbz-Phe-Arg-AMC as substrate by fluorescence-based assay
[2] = tested on: Trypanosoma brucei; assay: Inhibition of Trypanosoma brucei rhodesain using Cbz-Phe-Arg-AMC as substrate at 20 uM by fluorescence-based assay
[3] = tested on: Trypanosoma brucei brucei; assay: Antitrypanosomal activity against Trypanosoma brucei brucei BS449 measured after 24 hrs using ATPlite-1 reagent by cell based luciferase reporter gene assay; assay type: functional; details: BS449, 24 h; for pEC50: read-out: EC50
[4] = Stability of the compound in HMI-9 medium measured after 48 hrs; assay type: physicochemical
[5] = tested on: Trypanosoma brucei brucei; assay: Antitrypanosomal activity against Trypanosoma brucei brucei Trypanosoma brucei brucei BS449 measured after 48 hrs using ATPlite-1 reagent by cell based luciferase reporter gene assay; assay type: functional; details: BS449, 48 h; for pEC50: read-out: EC50
[6] = tested on: Trypanosoma brucei brucei; assay: Antitrypanosomal activity against Trypanosoma brucei brucei BS449 measured after 72 hrs using ATPlite-1 reagent by cell based luciferase reporter gene assay; assay type: functional; details: for pEC50: read-out: EC50
[7] = biological target: Procathepsin L (Homo sapiens, UniProt P07711); assay: Inhibition of human cathepsin L using Z-Phe-Arg-pNA as substrate measured after 10 to 80 mins by spectrophotometric method
Sequence of Procathepsin L (P07711 whole entry): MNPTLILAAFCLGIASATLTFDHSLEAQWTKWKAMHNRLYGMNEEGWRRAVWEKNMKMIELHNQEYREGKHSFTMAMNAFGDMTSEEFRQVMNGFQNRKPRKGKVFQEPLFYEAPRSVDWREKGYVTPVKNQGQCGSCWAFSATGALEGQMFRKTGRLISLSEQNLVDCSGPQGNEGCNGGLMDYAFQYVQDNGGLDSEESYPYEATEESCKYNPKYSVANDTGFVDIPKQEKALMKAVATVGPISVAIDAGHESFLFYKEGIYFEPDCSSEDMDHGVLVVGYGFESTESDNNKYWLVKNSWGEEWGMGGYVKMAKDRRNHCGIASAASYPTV

[8] = tested on: Trypanosoma brucei; assay: Inhibition of Trypanosoma brucei rhodesain using Cbz-Phe-Arg-AMC as substrate at 0.05 to 20 uM by fluorescence-based assay; details: TDE = time-dependent effect
[9] = Competitive inhibition of Trypanosoma brucei rhodesain in presence of varying levels of Cbz-Phe-Arg-AMC substrate by Cheng-Prusoff equation analysis
[10] = Inhibition of Trypanosoma brucei rhodesain using 10 uM of Cbz-Phe-Arg-AMC as substrate by Cheng-Prusoff equation analysis
[11] = Solubility of the compound in PBS; assay type: physicochemical; details: buffer
[12] = Selectivity index, ratio of Ki for human cathepsin L to Ki for competitive inhibition of Trypanosoma brucei rhodesain
[13] = Solubility of the compound in HMI-9 medium; assay type: physicochemical
[14] = Trypanosoma brucei, BS449, 72 h
[15] = Trypanosoma brucei, BS449, 72 h, read-out: pEC50 (converted)

pKi [1] | inhibition [2] [%] | also measured | Structure (SMILES)
5.83 | > 50 |  | CC(C)[C@H](NC(=O)OC(C)(C)C)C(=O)NCC#N
7.26 | > 50 |  | CC(C)(C)OC(=O)N[C@@H](Cc1ccccc1)C(=O)NCC#N
7.31 | > 50 | pEC50 [3]: 4.11; Stability [4]: Unstable; pEC50 [5]: 4.15; EC50 [6]: Nd(Unstable) | CC(C)(C)OC(=O)N[C@@H](Cc1ccccc1F)C(=O)NCC#N
6.76 | > 50 |  | CC(C)C[C@H](NC(=O)Nc1ccc(-c2noc(-c3cccs3)n2)cc1)C(=O)NCC#N
5.93 | > 50 |  | CSCC[C@H](NC(=O)OC(C)(C)C)C(=O)NCC#N
 | 37 |  | CC(C)CS(=O)(=O)CC(NC(=O)c1ccc(-c2ccccc2)s1)C(=O)NCC#N (racemic)
5.81 | > 50 | pKi [7]: < 5.30 | N#CCNC(=O)C1(NC(=O)c2ccc(-c3noc(-c4cccs4)n3)cc2)CCCCC1
 | 25 |  | CC(C)CS(=O)(=O)CC(NC(=O)c1cc2ccsc2s1)C(=O)NCC#N (racemic)
7.35 | > 50 |  | N#CCNC(=O)[C@H](Cc1ccc(O)cc1)NC(=O)OCc1ccccc1
5.83 | > 50 |  | CC[C@H](C)[C@H](NC(=O)OC(C)(C)C)C(=O)NCC#N
7.17 | > 50 |  | CC(C)(C)OC(=O)N[C@@H](CC1CCCCC1)C(=O)NCC#N
7.56 | > 50 |  | CC(C)(C)OC(=O)N[C@@H](Cc1cccc(Br)c1)C(=O)NCC#N
7.28 | > 50 |  | CC(C)(C)OC(=O)N[C@@H](Cc1ccc(-c2ccccc2)cc1)C(=O)NCC#N
 | 25 |  | CC(C)CS(=O)(=O)CC(NC(=O)c1ccc(-c2cccs2)cc1)C(=O)NCC#N (racemic)
6.05 | > 50 |  | CC(C)CS(=O)(=O)CC(NC(=O)c1ccc(-c2cccs2)s1)C(=O)NCC#N (racemic)
6.10 | > 50 |  | CC(C)(C)OC(=O)N[C@H](C(=O)NCC#N)c1ccccc1
7.13 | > 50 |  | CC(C)(C)OC(=O)N[C@@H](Cc1cccc(F)c1)C(=O)NCC#N
 | 11 |  | CN(C)c1cccc2c(S(=O)(=O)NC3(C(=O)NCC#N)CCCCC3)cccc12
7.91 | > 50 | inhibition [8]: Tde; pEC50 [3]: 4.37; pEC50 [5]: 3.98; pEC50 [6, 14]: 3.89; EC50 [6, 15]: 130000 nM | CC(C)(C)OC(=O)N[C@@H](Cc1ccc(Br)cc1)C(=O)NCC#N
 | 10 |  | CC[C@H](NC(=O)OC(C)(C)C)C(=O)NCC#N
6.09 | > 50 |  | CC(C)CS(=O)(=O)CC(NC(=O)c1cc(-c2ccccc2)cs1)C(=O)NCC#N (racemic)
6.12 | > 50 |  | CCCC[C@H](NC(=O)OC(C)(C)C)C(=O)NCC#N

pKi [1] | inhibition [2] [%] | also measured | Structure (SMILES)
7.38 | > 50 | pEC50 [3]: 4.20; Stability [4]: Unstable; pEC50 [5]: 4.10; EC50 [6]: Nd(Unstable) | N#CCNC(=O)[C@H](Cc1ccccc1)NC(=O)OCc1ccccc1
 | 30 |  | CC(C)(C)OC(=O)N[C@@H](CC1CC1)C(=O)NCC#N
 | 22 | pKi [7]: < 5.30 | N#CCNC(=O)C1(NC(=O)OCc2ccccc2)CCCCC1
6.38 | > 50 |  | CN(C)c1cccc2c(S(=O)(=O)N[C@@H](Cc3ccccc3)C(=O)NCC#N)cccc12
 | > 50 | pKi [9]: 8.28; inhibition [8]: Tde; pEC50 [3]: 5.10; pKi [10]: 8.04; solubility [11]: Insoluble; pEC50 [5]: 5.00; Ratio Ki [12]: 200; solubility [13]: Insoluble; pEC50 [6, 14]: 5.22; EC50 [6, 15]: 6190 nM | CC(C)C[C@H](NC(=O)c1ccc(-c2noc(-c3cccs3)n2)cc1)C(=O)NCC#N
7.59 | > 50 |  | COc1ccc(C[C@H](NC(=O)OCc2ccccc2)C(=O)NCC#N)cc1
 | 15 |  | CC(C)CS(=O)(=O)CC(NC(=O)c1cc2ccccc2s1)C(=O)NCC#N (racemic)
 | 9 |  | CC(C)CS(=O)(=O)CC(NC(=O)c1cccs1)C(=O)NCC#N (racemic)
6.10 | > 50 |  | CCN(CC)c1ccc2cc(C(=O)NC3(C(=O)NCC#N)CCCCC3)c(=O)oc2c1
7.33 | > 50 |  | CC(C)(C)OC(=O)N[C@@H](Cc1ccc(O)cc1)C(=O)NCC#N
7.36 | > 50 | pEC50 [3]: 3.77; pEC50 [5]: 3.98; pEC50 [6, 14]: 3.66; EC50 [6, 15]: 217000 nM | CC(C)(C)OC(=O)N[C@@H](Cc1ccc(F)cc1)C(=O)NCC#N
6.41 | > 50 |  | CC(C)(C)OC(=O)N[C@@H](Cc1ccsc1)C(=O)NCC#N
6.21 | > 50 |  | CC(C)(C)OC(=O)N[C@@H](Cc1ccco1)C(=O)NCC#N
6.90 | > 50 |  | CC(C)(C)OC(=O)N[C@@H](Cc1c[nH]c2ccccc12)C(=O)NCC#N
 | > 50 | pKi [9]: 8.59; inhibition [8]: Tde; pKi [10]: 8.04; Ratio Ki [12]: 200 | N#CCNC(=O)[C@H](Cc1cccc(Br)c1)NC(=O)c1ccc(-c2ccccc2)cc1
 |  | pEC50 [3]: 6.36; EC50 ([3]; read-out: pEC50 (converted)): 441 nM; pEC50 [5]: 6.49; EC50 ([5]; read-out: pEC50 (converted)): 321 nM; pEC50 [6, 14]: 6.46; EC50 [6, 15]: 350 nM | N=C(NCCCCCCNC(=N)NC(=N)Nc1ccc(Cl)cc1)NC(=N)Nc1ccc(Cl)cc1 [CHLORHEXIDINE]
 | 16 |  | CC(C)CS(=O)(=O)CC(NC(=O)c1ccc(-c2nnn[nH]2)s1)C(=O)NCC#N (racemic)
5.90 | > 50 |  | CC(C)(C)OC(=O)N[C@H](CC(=O)NC#N)Cc1ccccc1
7.05 | > 50 |  | CC(C)(C)OC(=O)N[C@@H](Cc1csc2ccccc12)C(=O)NCC#N
 | 29 |  | CC(C)CS(=O)(=O)CC(NC(=O)c1ccc(-c2ccsc2)s1)C(=O)NCC#N (racemic)
6.02 | > 50 |  | CC(C)(C)OC(=O)N[C@@H](COCc1ccccc1)C(=O)NCC#N

— ChEMBL document CHEMBL3871292, “Evaluation of dipeptide nitriles as inhibitors of rhodesain, a major cysteine protease of Trypanosoma brucei” (Bioorg Med Chem Lett, 2017)
